From ChEMBL document CHEMBL3885881, “DrugMatrix”

Species on record: Rattus norvegicus
Test: DrugMatrix - Regimen: Daily Repeat
Format: toxicity, organism-based, Sprague-Dawley
Design: regimen Daily Repeat, gender Male, age 6-8 weeks
Details: in vivo, po, route oral GAVAGE, vehicle 100 % WATER; for ABSOLUTE BASOPHIL / ABSOLUTE EOSINOPHIL / ABSOLUTE LYMPHOCYTE / ABSOLUTE MONOCYTE / ABSOLUTE SEGMENTED NEUTROPHIL / BASOPHIL / EOSINOPHIL / ERYTHROCYTE COUNT / HEMATOCRIT / HEMOGLOBIN / LEUKOCYTE COUNT / LYMPHOCYTE / MEAN CORPUSCULAR HEMOGLOBIN / MEAN CORPUSCULAR HEMOGLOBIN CONCENTRATION / MEAN CORPUSCULAR VOLUME / MONOCYTE / NEUTROPHIL / NUCLEATED RED BLOOD CELLS / PLATELET COUNT: tissue Blood; for ALANINE AMINOTRANSFERASE / ALBUMIN / ALKALINE PHOSPHATASE / ASPARTATE AMINOTRANSFERASE / BLOOD UREA NITROGEN / CARBON DIOXIDE / CHLORIDE / CHOLESTEROL / CREATINE PHOSPHOKINASE / CREATININE / GLUCOSE / LACTATE DEHYDROGENASE / LIPASE / PHOSPHORUS / POTASSIUM / SODIUM / TOTAL BILIRUBIN / TOTAL PROTEIN / URIC ACID: tissue Plasma
[1] = 0 mg/kg, 72 h, dose level Control, time 3 day
[2] = 0 mg/kg, 120 h, dose level Control, time 5 day
[3] = 31 mg/kg, 72 h, dose level Low, time 3 day

SMILES: Nc1ccc(S(=O)(=O)Nc2nccs2)cc1 [SULFATHIAZOLE]
- ABSOLUTE BASOPHIL [1]: 0 CELLS/uL
- ABSOLUTE EOSINOPHIL [1]: 0 CELLS/uL
- ABSOLUTE LYMPHOCYTE [1]: 8482.5 CELLS/uL
- ABSOLUTE MONOCYTE [1]: 63.83 CELLS/uL
- ABSOLUTE SEGMENTED NEUTROPHIL [1]: 887 CELLS/uL
- BASOPHIL [1]: 0%
- EOSINOPHIL [1]: 0%
- ERYTHROCYTE COUNT [1]: 5.49 x10E6/uL
- HEMATOCRIT [1]: 34.5%
- HEMOGLOBIN [1]: 13.33 G/DL
- LEUKOCYTE COUNT [1]: 9.43 x10E3/uL
- LYMPHOCYTE [1]: 90.17%
- MEAN CORPUSCULAR HEMOGLOBIN [1]: 24.3 pg
- MEAN CORPUSCULAR HEMOGLOBIN CONCENTRATION [1]: 38.63 G/DL
- MEAN CORPUSCULAR VOLUME [1]: 62.88 fL
- MONOCYTE [1]: 0.67%
- NEUTROPHIL [1]: 9.17%
- NUCLEATED RED BLOOD CELLS [1]: 0.67 /100WBC
- PLATELET COUNT [1]: 1022.83 x10E3/uL
- ALANINE AMINOTRANSFERASE [1]: 50.5 u/L
- ALBUMIN [1]: 4.08 G/DL
- ALKALINE PHOSPHATASE [1]: 368.33 u/L
- ASPARTATE AMINOTRANSFERASE [1]: 87.5 u/L
- BLOOD UREA NITROGEN [1]: 12.83 mg/dL
- CARBON DIOXIDE [1]: 32.83 mmol/L
- CHLORIDE [1]: 99.67 MEQ/L
- CHOLESTEROL [1]: 79.67 mg/dL
- CREATINE PHOSPHOKINASE [1]: 585 u/L
- CREATININE [1]: 0.22 mg/dL
- GLUCOSE [1]: 135.67 mg/dL
- LACTATE DEHYDROGENASE [1]: 171 u/L
- LIPASE [1]: 9.5 u/L
- PHOSPHORUS [1]: 11.18 mg/dL
- POTASSIUM [1]: 6.25 MEQ/L
- SODIUM [1]: 144.87 MEQ/L
- TOTAL BILIRUBIN [1]: 0.2 mg/dL
- TOTAL PROTEIN [1]: 6.08 G/DL
- URIC ACID [1]: 0.65 mg/dL
- ABSOLUTE BASOPHIL [2]: 0 CELLS/uL
- ABSOLUTE EOSINOPHIL [2]: 14.5 CELLS/uL
- ABSOLUTE LYMPHOCYTE [2]: 7596.17 CELLS/uL
- ABSOLUTE MONOCYTE [2]: 69.67 CELLS/uL
- ABSOLUTE SEGMENTED NEUTROPHIL [2]: 503 CELLS/uL
- BASOPHIL [2]: 0%
- EOSINOPHIL [2]: 0.17%
- ERYTHROCYTE COUNT [2]: 5.49 x10E6/uL
- HEMATOCRIT [2]: 34.72%
- HEMOGLOBIN [2]: 13.47 G/DL
- LEUKOCYTE COUNT [2]: 8.18 x10E3/uL
- LYMPHOCYTE [2]: 92.17%
- MEAN CORPUSCULAR HEMOGLOBIN [2]: 24.57 pg
- MEAN CORPUSCULAR HEMOGLOBIN CONCENTRATION [2]: 38.82 G/DL
- MEAN CORPUSCULAR VOLUME [2]: 63.3 fL
- MONOCYTE [2]: 1%
- NEUTROPHIL [2]: 6.67%
- NUCLEATED RED BLOOD CELLS [2]: 0 /100WBC
- PLATELET COUNT [2]: 1141 x10E3/uL
- ALANINE AMINOTRANSFERASE [2]: 48.33 u/L
- ALBUMIN [2]: 4.07 G/DL
- ALKALINE PHOSPHATASE [2]: 395.67 u/L
- ASPARTATE AMINOTRANSFERASE [2]: 85.67 u/L
- BLOOD UREA NITROGEN [2]: 15.83 mg/dL
- CARBON DIOXIDE [2]: 31.33 mmol/L
- CHLORIDE [2]: 100.83 MEQ/L
- CHOLESTEROL [2]: 62.33 mg/dL
- CREATINE PHOSPHOKINASE [2]: 248.33 u/L
- CREATININE [2]: 0.2 mg/dL
- GLUCOSE [2]: 135.67 mg/dL
- LACTATE DEHYDROGENASE [2]: 141.33 u/L
- LIPASE [2]: 9.5 u/L
- PHOSPHORUS [2]: 10.73 mg/dL
- POTASSIUM [2]: 6.07 MEQ/L
- SODIUM [2]: 145.35 MEQ/L
- TOTAL BILIRUBIN [2]: 0.22 mg/dL
- TOTAL PROTEIN [2]: 6.12 G/DL
- URIC ACID [2]: 0.63 mg/dL
- ABSOLUTE BASOPHIL [3]: 0 CELLS/uL
- ABSOLUTE EOSINOPHIL [3]: 0 CELLS/uL
- ABSOLUTE LYMPHOCYTE [3]: 8271.67 CELLS/uL
- ABSOLUTE MONOCYTE [3]: 54.33 CELLS/uL
- ABSOLUTE SEGMENTED NEUTROPHIL [3]: 707.33 CELLS/uL
- BASOPHIL [3]: 0%
- EOSINOPHIL [3]: 0%
- ERYTHROCYTE COUNT [3]: 5.15 x10E6/uL
- HEMATOCRIT [3]: 32.73%
- HEMOGLOBIN [3]: 12.87 G/DL
- LEUKOCYTE COUNT [3]: 9.03 x10E3/uL
- LYMPHOCYTE [3]: 91.33%
- MEAN CORPUSCULAR HEMOGLOBIN [3]: 25.13 pg
- MEAN CORPUSCULAR HEMOGLOBIN CONCENTRATION [3]: 39.33 G/DL
- MEAN CORPUSCULAR VOLUME [3]: 63.97 fL
- MONOCYTE [3]: 0.67%
- NEUTROPHIL [3]: 8%
- NUCLEATED RED BLOOD CELLS [3]: 0 /100WBC
- PLATELET COUNT [3]: 928 x10E3/uL
- ALANINE AMINOTRANSFERASE [3]: 54.67 u/L
- ALBUMIN [3]: 4.13 G/DL
- ALKALINE PHOSPHATASE [3]: 375.67 u/L
- ASPARTATE AMINOTRANSFERASE [3]: 86.67 u/L
- BLOOD UREA NITROGEN [3]: 13.67 mg/dL
- CARBON DIOXIDE [3]: 32 mmol/L
- CHLORIDE [3]: 100.33 MEQ/L
- CHOLESTEROL [3]: 70.33 mg/dL
- CREATINE PHOSPHOKINASE [3]: 289 u/L
- CREATININE [3]: 0.36 mg/dL
- GLUCOSE [3]: 128.67 mg/dL
- LACTATE DEHYDROGENASE [3]: 147.33 u/L
- LIPASE [3]: 11.67 u/L
- PHOSPHORUS [3]: 11.83 mg/dL
- POTASSIUM [3]: 6.53 MEQ/L
- SODIUM [3]: 144.47 MEQ/L
- TOTAL BILIRUBIN [3]: 0.2 mg/dL
- TOTAL PROTEIN [3]: 6.07 G/DL
- URIC ACID [3]: 0.8 mg/dL
